# In US20250042889A1, “3CLPRO PROTEASE INHIBITOR” (SHANGHAI QILU PHARMACEUTICAL RESEARCH AND DEVELOPMENT …, priority 2021, published 2025):
# Where two headings read alike, the source gives them in different places.
# Experiments:
# [1] = male, CD1, mouse, in vivo, po, 10 mg/kg
# [2] = molecular target: SARS-COV-2 3CLpro/Mpro protease (Severe acute respiratory syndrome coronavirus 2 (2019-nCoV) (SARS-CoV-2), UniProt P0DTD1); assay: Inhibitory effect on SARS-COV-2 3CLpro/Mpro protease by fluorescence resonance energy transfer; type: biochemical; conditions: activity intervals A-D
# in vivo = conditions: male, CD1, mouse
# [3] = Pharmacokinetics in vivo experiment in cynomolgus macaques; conditions: male, cynomolgus monkey, 10 mg/kg; for AUC / Cmax / Tmax: in vivo, po; for half-life: plasma, cynomolgus macaque, oral administration
# Protocol: • Basic information of animals • Species: cynomolgus macaque • Grade: conventional grade • Quantity: 18 cynomolgus macaques (male) were used in the drug administration experiment. • Weight: about 2.5 to 4.5 kg • Age: 3 to 5 years old • Source: Huazhen Animal Farm, Conghua City (General Partnership)
# There are 9 male cynomolgus macaques, 3 cynomolgus macaques/group, 3 groups in total. The animals were fasted for 12 hours before administration, and the test solution was administered by gavage (10 mg/kg), and the administration volume was 2.5 mL/kg.
# The blood was placed on wet ice, and centrifuged at 1700 g at 4° C. for 10 min within 1.5 h after collection. After centrifugation, the plasma was taken and added into a detection tube. Plasma samples can be stored in a refrigerator below-20° C. within 2 hours after centrifugation.
# WinNonlin 8.1.0.3530 was used to calculate pharmacokinetic parameters.
# [4] = Pharmacokinetics in vivo experiment in CD1 mice; conditions: oral administration, 10 mg/kg
# [5] = read-out: IC50 (nM), Inhibition on SARS-CoV-2 3CLpro/Mpro protease
Structure (SMILES),F [1] [%],"IC50 [2, 5] [nM]","AUC (in vivo; in vivo, iv, 1 mg/kg) [ng·h/mL]","Vd (in vivo; in vivo, iv, 1 mg/kg) [L/kg]","clearance (in vivo; in vivo, iv, 1 mg/kg) [mL/min/kg]","AUC (in vivo; in vivo, po, 10 mg/kg) [ng·h/mL]","Cmax (in vivo; in vivo, po, 10 mg/kg) [ng/mL]","half-life (in vivo; plasma, po, 10 mg/kg) [min]",AUC [3] [ng·h/mL],Cmax [3] [ng/mL],Tmax [3] [min],half-life [3] [min],"half-life (in vivo; plasma, iv, 1 mg/kg) [min]","IC50 ([2]; IC50 (nM), Inhibition on SARS-CoV-2 3CLpro/Mpro protease) [nM]","half-life (in vivo; in vivo, iv, 1 mg/kg) [min]","half-life (in vivo; in vivo, po, 10 mg/kg) [min]",F [4] [%]
"CNc1cncc(C(=O)N2CCC[C@@H](Nc3c(C(=O)N4CCCCC4)cc(Br)cc3[N+](=O)[O-])C2)c1 [Example 31, (R)-(5-bromo-2-((1-(5-(methylamino)nicotinoyl)piperidin-3-yl)amino)-3-nitrophenyl)(piperidin-1-yl)methanone]",42.1,10 to 50,88,1.56,11.6,369,401,15,454,232,79.8,29.4,,,,,
"CNc1cncc(C(=O)N2CCC[C@@H](Nc3c(C(=O)N4C[C@@H](C)O[C@@H](C)C4)cc(Br)cc3[N+](=O)[O-])C2)c1 [Example 34, (5-Bromo-2-((R)-1-(5-(methylamino)nicotinoyl)piperidin-3-yl)amino)-3-nitrophenyl ((2R,6S)-2,6-dimethylmorpholinyl)methanone]",63,10 to 50,107,1.02,9.4,702,1020,30,4090,1960,79.8,35,6.84,,,,
CNc1cncc(C(=O)N2CCC[C@@H](Nc3c(C(=O)N4C5CCCC4COC5)cc(Br)cc3[N+](=O)[O-])C2)c1 [Example 312],,,95,1.38,10.6,605,594,,,,,,,10 to 50,7.68,46.1,65.5
CNc1cncc(C(=O)N2C[C@H](Nc3c(C(=O)N4C[C@@H](C)O[C@@H](C)C4)cc(Br)cc3[N+](=O)[O-])[C@@H](OC)C2)c1 [Example 321],84.7,10 to 50,153,7.1,6.2,1350,1640,144,994,699,70.2,,96,,,,
